Experimental data as given in patent US20230190717A1, “P38 GAMMA INHIBITORS AND METHOD OF USE THEREOF” (City of Hope, priority 2017, published 2023).

Tests used:
Type in all cases: cell-based, human
[1] = tested on: M14; assay: NCI-60 cytotoxicity, M14; conditions: M14 (Melanoma), 72 h
Description: (§1) Briefly, human NCI-60 cancer cell lines were counted with a Vi-CELL Cell Viability Analyzer (Beckman Coulter), resuspended in RPMI-1640 medium containing 10% FBS and 1% penicillin/streptomycin and dispensed in wells of 96-well microplates (3000 cells per well for solid tumor and 5000 per well for blood tumor cells) using an epMotion 5075 liquid handler (Eppendorf) under a sterile condition, followed by incubation overnight at 37° C. in 5% (v/v) CO2. Cells were exposed to compounds in a dose-dependent manner for 72 h. An MTS dye (20 uL per well) was added to each well. Cell viability was determined by tetrazolium conversion to its […] dye. […] Each experiment was performed in duplicate. […] H9 cells are more sensitive to drugs, therefore instead of 72 hours, we choose 48 hour the incubation time for H9 cells.
(§2) IC50 values were determined using […] software (Biosoft).

[2] = tested on: NCI-H460; assay: NCI-60 cytotoxicity, NCI-H460; conditions: NCI-H460 (Lung), 72 h
Description: as §1, §2

[3] = tested on: HCT-116; assay: NCI-60 cytotoxicity, HCT-116; conditions: HCT-116 (Colon), 72 h
Description: as §1, §2

[4] = tested on: T-47D; assay: NCI-60 cytotoxicity, T-47D; conditions: T-47D (Breast), 72 h
Description: as §1, §2

[5] = tested on: NCI-H552; assay: NCI-60 cytotoxicity, NCI-H552; conditions: NCI-H552 (Lung), 72 h
Description: as §1, §2

[6] = tested on: 786-0; assay: NCI-60 cytotoxicity, 786-0; conditions: 786-0 (Renal), 72 h
Description: as §1, §2

[7] = tested on: HCT-15; assay: NCI-60 cytotoxicity, HCT-15; conditions: HCT-15 (Colon), 72 h
Description: as §1, §2

[8] = tested on: MOLT-4; assay: NCI-60 cytotoxicity, MOLT-4; conditions: MOLT-4 (ALL), 72 h
Description: as §1, §2

[9] = tested on: SNB-75; assay: NCI-60 cytotoxicity, SNB-75; conditions: SNB-75 (CNS), 72 h
Description: as §1, §2

[10] = tested on: U251; assay: NCI-60 cytotoxicity, U251; conditions: U251 (CNS), 72 h
Description: as §1, §2

[11] = tested on: UACC257; assay: NCI-60 cytotoxicity, UACC257; conditions: UACC257 (Melanoma), 72 h
Description: as §1, §2

[12] = tested on: Colo 205; assay: NCI-60 cytotoxicity, Colo 205; conditions: Colo 205 (Colon), 72 h
Description: as §1, §2

[13] = tested on: HCC-2998; assay: NCI-60 cytotoxicity, HCC-2998; conditions: HCC-2998 (Colon), 72 h
Description: as §1, §2

[14] = tested on: SS patient cells; assay: Cell viability, SS patient cells; conditions: SS patient cells (n=2), 100 nM
Description: Compound, Samples, and Cell Culture: […] Isolation of PBMCs or CD4^+T cells from both patients and healthy donors and culture of CTCL cell lines (Hut78, HH, and H9) were performed as previously described. […] IC50 values were determined using […] software (Biosoft).

[15] = tested on: A549; assay: NCI-60 cytotoxicity, A549; conditions: A549 (Lung), 72 h
Description: as §1, §2

[16] = tested on: PC-3; assay: NCI-60 cytotoxicity, PC-3; conditions: PC-3 (Prostate), 72 h
Description: as §1, §2

[17] = tested on: KM12; assay: NCI-60 cytotoxicity, KM12; conditions: KM12 (Colon), 72 h
Description: as §1, §2

[18] = tested on: HL60; assay: NCI-60 cytotoxicity, HL60; conditions: HL60 (AML), 72 h
Description: as §1, §2

[19] = tested on: NCI/ADR-RES; assay: NCI-60 cytotoxicity, NCI/ADR-RES; conditions: NCI/ADR-RES (Ovarian), 72 h
Description: as §1, §2

[20] = tested on: RXF 393; assay: NCI-60 cytotoxicity, RXF 393; conditions: RXF 393 (Renal), 72 h
Description: as §1, §2

[21] = tested on: BT-S49; assay: NCI-60 cytotoxicity, BT-S49; conditions: BT-S49 (Breast), 72 h
Description: as §1, §2

[22] = tested on: SK-MEL-2; assay: NCI-60 cytotoxicity, SK-MEL-2; conditions: SK-MEL-2 (Melanoma), 72 h
Description: as §1, §2

[23] = tested on: NCI-H322M; assay: NCI-60 cytotoxicity, NCI-H322M; conditions: NCI-H322M (Lung), 72 h
Description: as §1, §2

[24] = tested on: NCI-H23; assay: NCI-60 cytotoxicity, NCI-H23; conditions: NCI-H23 (Lung), 72 h
Description: as §1, §2

[25] = tested on: MCF7; assay: NCI-60 cytotoxicity, MCF7; conditions: MCF7 (Breast), 72 h
Description: as §1, §2

[26] = tested on: SN12C; assay: NCI-60 cytotoxicity, SN12C; conditions: SN12C (Renal), 72 h
Description: as §1, §2

[27] = tested on: SK-MEL-5; assay: NCI-60 cytotoxicity, SK-MEL-5; conditions: SK-MEL-5 (Melanoma), 72 h
Description: as §1, §2

[28] = tested on: NCI-H226; assay: NCI-60 cytotoxicity, NCI-H226; conditions: NCI-H226 (Lung), 72 h
Description: Cells were exposed to compounds in a dose-dependent manner for 72 h. An MTS dye (20 uL per well) was added to each well. Cell viability was determined by tetrazolium conversion to its format an dye. Absorbance was monitored at 490 nm using an automated BMG PHERAstar plate reader (BMG Labtech). Each experiment was performed in duplicate. IC50 values were determined using CalcuSyn software (Biosoft).
Absorbance was monitored at 490 nm using an automated BMG PHERAstar plate reader (BMG Labtech). […] All experiments are repeated in three independent experiments and data represented are the average of triplicate experiments.

## Cc1ccc([N+](=O)[O-])cc1S(=O)(=O)N(C)/N=C/c1cnc2ccc(Br)cn12 [Compound 1]
[1]; Homo sapiens
  IC50: 0.195 µM
[2]; Homo sapiens
  IC50: 0.01 µM
[3]; Homo sapiens
  IC50: 0.001 µM
[4]; Homo sapiens, T47D
  IC50: > 10 µM
[5]; Homo sapiens
  IC50: > 10 µM
[6]; Homo sapiens
  IC50: 0.008 µM
[7]; Homo sapiens
  IC50: 0.008 µM
[8]; Homo sapiens
  IC50: 0.527 µM
[9]; Homo sapiens
  IC50: 0.435 µM
[10]; Homo sapiens, U-251
  IC50: 0.253 µM
[11]; Homo sapiens, UACC-257
  IC50: 2.32 µM
[12]; Homo sapiens
  IC50: 2.18 µM
[13]; Homo sapiens
  IC50: > 10 µM
[14]
  cell viability: significantly reduced viability
[15]; Homo sapiens
  IC50: 2.66 µM
[16]; Homo sapiens
  IC50: 0.02 µM
[17]; Homo sapiens
  IC50: 0.006 µM
[18]; Homo sapiens, HL-60
  IC50: 0.005 µM
[19]; Homo sapiens
  IC50: 0.024 µM
[20]; Homo sapiens
  IC50: 0.08 µM
[21]; Homo sapiens
  IC50: < 0.001 µM
[22]; Homo sapiens
  IC50: 0.317 µM
[23]; Homo sapiens
  IC50: 1.5 µM
[24]; Homo sapiens
  IC50: > 10 µM
[25]; Homo sapiens
  IC50: 0.238 µM
[26]; Homo sapiens
  IC50: 0.468 µM
[27]; Homo sapiens
  IC50: > 10 µM

## O=C1NCCc2[nH]c(-c3ccncc3)cc21 [Compound A11]
[1]
  IC50: 3.33 µM
[3]
  IC50: 1.26 µM
[4]
  IC50: > 10 µM
[5]
  IC50: > 10 µM
[6]
  IC50: 9.3 µM
[7]
  IC50: 2.54 µM
[8]
  IC50: 6.98 µM
[9]
  IC50: 6.14 µM
[10]
  IC50: 4.57 µM
[11]
  IC50: > 10 µM
[12]
  IC50: > 10 µM
[13]
  IC50: > 10 µM
[15]
  IC50: > 10 µM
[16]
  IC50: 9.18 µM
[17]
  IC50: 2.28 µM
[18]
  IC50: 0.247 µM
[19]
  IC50: 1.44 µM
[20]
  IC50: 3.47 µM
[21]
  IC50: 0.705 µM
[28]
  IC50: > 10 µM
[22]
  IC50: > 10 µM
[23]
  IC50: > 10 µM
[24]
  IC50: > 10 µM
[25]
  IC50: 3.77 µM
[27]
  IC50: > 10 µM

## O=C1NC(=NCc2cccs2)S/C1=C\c1ccc2ncccc2c1 [Compound A10]
[2]
  IC50: > 10 µM
[3]
  IC50: 3.2 µM
[4]
  IC50: 6.19 µM
[5]
  IC50: > 10 µM
[6]
  IC50: 7.77 µM
[7]
  IC50: 3.84 µM
[8]
  IC50: 5.2 µM
[9]
  IC50: > 10 µM
[10]
  IC50: 1.92 µM
[11]
  IC50: > 10 µM
[12]
  IC50: > 10 µM
[13]
  IC50: > 10 µM
[15]
  IC50: > 10 µM
[16]
  IC50: > 10 µM
[17]
  IC50: > 10 µM
[18]
  IC50: 1.14 µM
[19]
  IC50: 3.67 µM
[20]
  IC50: > 10 µM
[21]
  IC50: 4.78 µM
[28]
  IC50: > 10 µM
[22]
  IC50: > 10 µM
[23]
  IC50: > 10 µM
[24]
  IC50: > 10 µM
[26]
  IC50: > 10 µM
[27]
  IC50: > 10 µM
